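Tested at 5 concentrations; 48 h exposure; 96-well plates; endpoints linearly interpolated, else capped at highest concentration. GI50 = concentration required for 50% inhibition of growth. TGI is the concentration that stops growth completely.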
Columns and labels:
Assay in all cases: inhibition of tumour cell growth, NCI panel, 48 h
[1] = test system: 786-0 renal
[2] = test system: A498 renal
[3] = test system: A549 NSCLC
[4] = test system: ACHN renal
[5] = test system: BT-549 breast
[6] = test system: CAKI-1 renal
[7] = test system: CCRF-CEM leukemia
[8] = test system: COLO 205 colon
[9] = test system: DU-145 prostate
[10] = test system: EKVX NSCLC
[11] = test system: HCC-2998 colon
[12] = test system: HCT-116 colon
[13] = test system: HCT-15 colon
[14] = test system: HL-60(TB) leukemia
[15] = test system: HOP-62 NSCLC
[16] = test system: HOP-92 NSCLC
[17] = test system: HS 578T breast
[18] = test system: HT29 colon
[19] = test system: IGROV1 ovarian
[20] = test system: K-562 leukemia
[21] = test system: KM12 colon
[22] = test system: LOX IMVI melanoma
[23] = test system: M14 melanoma
[24] = test system: MALME-3M melanoma
[25] = test system: MCF7 breast
[26] = test system: MDA-MB-231 breast
[27] = test system: MDA-MB-435
[28] = test system: MOLT-4 leukemia
[29] = test system: NCI-H226 lung
[30] = test system: NCI-H23 lung
[31] = test system: NCI-H460 lung
[32] = test system: NCI-H522 lung
[33] = test system: NCI/ADR-RES ovarian
[34] = test system: OVCAR-3 ovarian
[35] = test system: OVCAR-4 ovarian
[36] = test system: OVCAR-5 ovarian
[37] = test system: OVCAR-8 ovarian
[38] = test system: PC-3 prostate
[39] = test system: RPMI-8226 leukemia
[40] = test system: RXF 393 renal
[41] = test system: SF-268 CNS
[42] = test system: SF-295 CNS
[43] = test system: SF-539 CNS
[44] = test system: SK-MEL-2 melanoma
[45] = test system: SK-MEL-28 melanoma
[46] = test system: SK-MEL-5 melanoma
[47] = test system: SK-OV-3 ovarian
[48] = test system: SN12C renal
[49] = test system: SNB-19 CNS
[50] = test system: SNB-75 CNS
[51] = test system: SR leukemia
[52] = test system: SW-620 colon
[53] = test system: TK-10 renal
[54] = test system: U251 CNS
[55] = test system: UACC-257 melanoma
[56] = test system: UACC-62 melanoma
[57] = test system: UO-31 renal

Work on `O=C(CN1CCOCC1)Nc1ccc(Cn2nnc3c2C(=O)c2nnn(Cc4ccc(NC(=O)CN5CCOCC5)cc4)c2C3=O)cc1` yielded a GI50 [1] of 1940 nM, a TGI [1] of 5.27 µM and a GI50 [2] of 1970 nM. It also gave a TGI [2] of 4.39 µM, a GI50 [3] of 1990 nM and a TGI [3] of 4.97 µM. The GI50 [4] was 4.01 µM, the TGI [4] was 20.2 µM and the GI50 [5] was 1460 nM. The TGI [5] was 2830 nM, the GI50 [6] was over 45 µM and the TGI [6] was over 100 µM. For the same molecule, the GI50 [7] was 233 nM, the TGI [7] was 1600 nM and the GI50 [8] was 199 nM. The TGI [8] was 463 nM, the GI50 [9] was 1380 nM and the TGI [9] was 2700 nM. For the same molecule, the GI50 [10] was 1380 nM, the TGI [10] was 2980 nM and the GI50 [11] was 348 nM. For the same molecule, the TGI [11] was 1340 nM, the GI50 [12] was 316 nM and the TGI [12] was 1160 nM. For the same molecule, the GI50 [13] was 7.42 µM, the TGI [13] was over 100 µM and the GI50 [14] was 204 nM. The TGI [14] was 610 nM, the GI50 [15] was 1640 nM and the TGI [15] was 3.46 µM. It also gave a GI50 [16] of 822 nM, a TGI [16] of 2340 nM and a GI50 [17] of 1940 nM. For the same molecule, the TGI [17] was 8.34 µM, the GI50 [18] was 364 nM and the TGI [18] was 1530 nM. For the same molecule, the GI50 [19] was 361 nM, the TGI [19] was 1640 nM and the GI50 [20] was 745 nM. The TGI [20] was over 100 µM, the GI50 [21] was 959 nM and the TGI [21] was 5.23 µM. It also gave a GI50 [22] of 275 nM, a TGI [22] of 1350 nM and a GI50 [23] of 596 nM. The TGI [23] was 1880 nM, the GI50 [24] was 178 nM and the TGI [24] was 469 nM. The GI50 [25] was 180 nM, the TGI [25] was 484 nM and the GI50 [26] was 260 nM. It also gave a TGI [26] of over 100 µM, a GI50 [27] of 177 nM and a TGI [27] of 329 nM. It also gave a GI50 [28] of 254 nM, a TGI [28] of 705 nM and a GI50 [29] of 1540 nM. The TGI [29] was 3.93 µM, the GI50 [30] was 802 nM and the TGI [30] was 3.61 µM. It also gave a GI50 [31] of 378 nM, a TGI [31] of 5.48 µM and a GI50 [32] of 191 nM. For the same molecule, the TGI [32] was 587 nM, the GI50 [33] was over 100 µM and the TGI [33] was over 100 µM. The GI50 [34] was 250 nM, the TGI [34] was 836 nM and the GI50 [35] was 303 nM. It also gave a TGI [35] of 1520 nM, a GI50 [36] of 1940 nM and a TGI [36] of 4.29 µM. For the same molecule, the GI50 [37] was 358 nM, the TGI [37] was 1330 nM and the GI50 [38] was 644 nM. The TGI [38] was 5.63 µM, the GI50 [39] was 365 nM and the TGI [39] was 2240 nM. It also gave a GI50 [40] of 1340 nM, a TGI [40] of 2920 nM and a GI50 [41] of 334 nM. For the same molecule, the TGI [41] was 1940 nM, the GI50 [42] was 1650 nM and the TGI [42] was 3.68 µM. It also gave a GI50 [43] of 304 nM, a TGI [43] of 1070 nM and a GI50 [44] of 438 nM. For the same molecule, the TGI [44] was 1720 nM, the GI50 [45] was 696 nM and the TGI [45] was 2620 nM. It also gave a GI50 [46] of 249 nM, a TGI [46] of 877 nM and a GI50 [47] of 2680 nM. It also gave a TGI [47] of 8.28 µM, a GI50 [48] of 259 nM and a TGI [48] of 733 nM. It also gave a GI50 [49] of 410 nM, a TGI [49] of 1570 nM and a GI50 [50] of 1660 nM. For the same molecule, the TGI [50] was 3.04 µM, the GI50 [51] was 516 nM and the TGI [51] was 3.97 µM. For the same molecule, the GI50 [52] was 366 nM, the TGI [52] was 1750 nM and the GI50 [53] was 3.25 µM. It also gave a TGI [53] of 24.4 µM, a GI50 [54] of 305 nM and a TGI [54] of 942 nM. The GI50 [55] was 253 nM, the TGI [55] was 624 nM and the GI50 [56] was 463 nM. It also gave a TGI [56] of 1830 nM, a GI50 [57] of 26 µM and a TGI [57] of over 100 µM.
